Patent US20080026952A1, “HCV replicon shuttle vectors” (priority 2005, published 2008)

Assays:
[1] = tested on: HCV replicon containing NS5B from Clinical Isolate Pt 6 in Huh7 cells; assay: Transient replicon phenotypic assay (firefly luciferase), patient-derived NS5B Pt 6; format: cell-based, HCV genotype 1a; settings: Hepatitis C virus, genotype 1a, Huh-7, 72 h, read-out: 2′-C-Me-C IC50
Procedure: (§1) Five micrograms of DNA plasmids were linearized by Sca I restriction enzyme (Roche). After overnight digestion at 37° C., the DNA was purified using Qiagen PCR purification kit. One microgram of linearized DNA was used for the in vitro transcription using T7 Mega script kit following manufacturer's protocol (Ambion). After 2 hours of incubation at 37° C., DNase treatment was performed for 30 minutes at 37° C. to remove the DNA template. In vitro transcribed RNA was then purified using NucAway Spin Column following manufacturer's protocol (Ambion).
(§2) Cured hepatoma cell line Huh7 were cultured at 37° C. in a humidified atmosphere with 5% CO2 in Dulbecco's Modified Eagle Medium (DMEM) supplemented with Glutamax™ and […] sodium pyruvate (Cat #10569-010). The medium was further supplemented with 10% (v/v) FBS (Cat #16000-036) and 1% (v/v) penicillin/streptomycin (Cat #15140-122). All reagents were from Invitrogen/Gibco.
(§3) Four million cured Huh7 cells were transfected with 5 μg of in vitro transcribed RNA using electroporation. […] Inhibitors were added 24 hours post-transfection in 3 fold dilutions at a final DMSO concentration of 1% and firefly luciferase reporter signal was read 72 hours after addition of inhibitors using the Luciferase Assay system (Promega, cat #E1501). […]

[2] = tested on: HCV replicon containing NS5B from Clinical Isolate Pt 5 in Huh7 cells; assay: Transient replicon phenotypic assay (firefly luciferase), patient-derived NS5B Pt 5; format: cell-based, HCV genotype 1a; settings: Hepatitis C virus, genotype 1a, Huh-7, 72 h, read-out: 2′-C-Me-C IC50
Procedure: as §1, §2, §3

[3] = tested on: HCV replicon containing NS5B from Clinical Isolate Pt 9 in Huh7 cells; assay: Transient replicon phenotypic assay (firefly luciferase), patient-derived NS5B Pt 9; format: cell-based, HCV genotype 1a; settings: Hepatitis C virus, genotype 1a, Huh-7, 72 h, read-out: 2′-C-Me-C IC50
Procedure: as §1, §2, §3

[4] = tested on: HCV replicon pSS-1_1a_NS5B_5′AsiSI_3′RsrII in Huh7 cells; assay: Transient replicon phenotypic assay (firefly luciferase), reference shuttle vector; format: cell-based, HCV genotype 1a (H77); settings: Hepatitis C virus, Huh-7, 72 h, read-out: 2′-C-Me-C IC50
Procedure: as §1, §2, §3

[5] = tested on: HCV replicon containing NS5B from Clinical Isolate Pt 8 in Huh7 cells; assay: Transient replicon phenotypic assay (firefly luciferase), patient-derived NS5B Pt 8; format: cell-based, HCV genotype 1a; settings: Hepatitis C virus, genotype 1a, Huh-7, 72 h, read-out: 2′-C-Me-C IC50
Procedure: as §1, §2, §3

[6] = tested on: HCV replicon containing NS5B from Clinical Isolate Pt 7 in Huh7 cells; assay: Transient replicon phenotypic assay (firefly luciferase), patient-derived NS5B Pt 7; format: cell-based, HCV genotype 1a; settings: Hepatitis C virus, genotype 1a, Huh-7, 72 h, read-out: 2′-C-Me-C IC50
Procedure: as §1, §2, §3

[7] = tested on: HCV replicons with NS5B from genotype-1a and genotype-1b clinical isolates in Huh-7 cells; assay: Sensitivity of treatment naive NS5B clinical isolates versus reference replicons (FIG. 3); format: cell-based, HCV genotype-1a and genotype-1b; settings: pools of 96 clones per isolate, reference replicons Con1 (genotype-1b) and H77 (genotype-1a)
Procedure: Four million cured Huh7 cells were transfected with 5 μg of in vitro transcribed RNA using electroporation. Cells were then resuspended in 7.2 ml of DMEM containing 5% FBS and plated in 96-well plate at 50000 cells/well (in 90 μl final volume). Inhibitors were added 24 hours post-transfection in 3 fold dilutions at a final DMSO concentration of 1% and firefly luciferase reporter signal was read 72 hours after addition of inhibitors using the Luciferase Assay system (Promega, cat #E1501). The IC50 values were assessed as the inhibitor concentration at which a 50% reduction in the level of firefly luciferase reporter was observed as compared to the level of firefly luciferase signal without the addition of compounds. Results of studies testing the inhibitory effects of the compound, 2′-C-Methyl-Cytidine, on replication of pSS-1—1a_NS5B—5′AsiSI—3′RsrII and replicons with patient-derived NS5B sequences are shown in Table 2.
In order to test the sensitivity of HCV polymerase inhibitors across genetically diverse and treatment naive clinical isolates, the NS5B coding region from the isolates was amplified and cloned into the replicon shuttle replicons (clinical isolates from genotype-1a were cloned into pSS-1—1a—5′AsiSI_lacZAmC—3′RsrII and genotype-1b clinical isolates were cloned into pSC—1b—5′AsiSI_lacZAmC—3′RsrII). 96 molecular clones were pooled for each clinical isolate. […]

| SMILES | IC50 [1] [nM] | IC50 [2] [nM] | IC50 [3] [nM] | IC50 [4] [nM] | IC50 [5] [nM] | IC50 [6] [nM] | potency across the NS5B clinical isolates as compared to the reference replicons [7] |
| --- | --- | --- | --- | --- | --- | --- | --- |
| C[C@@]1(O)[C@H](O)[C@@H](CO)O[C@H]1n1ccc(N)nc1=O [2′-C-Me-C, 2′-C-Methyl-Cytidine] | 300 ± 40 | 300 ± 50 | 400 ± 60 | 400 ± 30 | 400 ± 70 | 300 ± 50 |  |
| O=C(O)c1cccs1 [thiophene-2-carboxylic acid] |  |  |  |  |  |  | variable potencies |
| C1=NNSc2ccccc21 [benzothiadiazine] |  |  |  |  |  |  | variable potencies |
